Measurements reported in PMC5814162, “Anticoagulants inhibit proteolytic clearance of plasma amyloid beta” (Oncotarget, 2017).

Assays:
[1] = tested on: plasma Aβ42 (FXII-FVII pathway); test: Plasma Aβ42 level in mice given synthetic Aβ42 after anticoagulant treatment (ELISA); type: in vivo; conditions: male C57BL/6 mice, anticoagulant once daily for 5 days (EP 0.1 and 0.5 mg/kg i.p.; DGT 22.5 and 45 mg/kg p.o.), Aβ42 40 μg/kg i.p. 1 h after final dose, blood 6 h later, vs vehicle, mean of n = 3, 'up to' over the two doses
Protocol: All experiments were approved by the Institutional Animal Care and Use Committee at the Roswell Park Cancer Institute under protocol 1022M. All mice were housed in individually ventilated pathogen-free cage systems equipped with HEPA filtered air supply and reverse osmosis purified water in a centralized vivarium facility. The facility is controlled with fully automated sensors for light (12-hour dark - 12-hour light cycle), temperature (70°F ± 2°F), humidity and airflow. All mice had free access to standard rodent diet (sterilizable Teklad #2018, with 6% fat and alfalfa free). C57BL/6NTac mice (male) were purchased from Taconic and used in two experiments. In the first experiment, mice at 8-9 weeks of age were treated with vehicle or an anticoagulant once daily for 5 days, and 1 h after the final treatment, the mice were treated with a single dose of Aβ42, followed by blood draw 6 h later. Blood was collected from the mice by cardiac puncture at the time of sacrifice by carbon dioxide and was collected into K3 EDTA-containing tubes (Multivette 600 from Sarstedt), from which plasma samples were prepared. […] Plasma concentrations of Aβ were determined by ELISA, which either detects both Aβ40 and Aβ42 [53] or specifically measures each peptide. […] Plasma concentration of FI was also measured by ELISA using a kit from GenWay Biotech. […]

[2] = tested on: plasma Aβ40 / endogenous Aβ (FXII-FVII pathway); test: Plasma Aβ level in mice treated with EP and/or Aβ40 (ELISA); type: in vivo; conditions: male C57BL/6 mice, EP 0.5 mg/kg i.p. once daily 5 days, n = 3
Protocol: All experiments were approved by the Institutional Animal Care and Use Committee at the Roswell Park Cancer Institute under protocol 1022M. All mice were housed in individually ventilated pathogen-free cage systems equipped with HEPA filtered air supply and reverse osmosis purified water in a centralized vivarium facility. The facility is controlled with fully automated sensors for light (12-hour dark – 12-hour light cycle), temperature (70°F ± 2°F), humidity and airflow. All mice had free access to standard rodent diet (sterilizable Teklad #2018, with 6% fat and alfalfa free). C57BL/6NTac mice (male) were purchased from Taconic and used in two experiments. In the first experiment, mice at 8–9 weeks of age were treated with vehicle or an anticoagulant once daily for 5 days, and 1 h after the final treatment, the mice were treated with a single dose of Aβ42, followed by blood draw 6 h later. Blood was collected from the mice by cardiac puncture at the time of sacrifice by carbon dioxide and was collected into K3 EDTA-containing tubes (Multivette 600 from Sarstedt), from which plasma samples were prepared. […]
(§1) Plasma concentrations of Aβ were determined by ELISA, which either detects both Aβ40 and Aβ42 [53] or specifically measures each peptide. […] Plasma concentration of FI was also measured by ELISA using a kit from GenWay Biotech. […]

FXII-FVII pathway [3] = test: Plasma coagulation factor activation in mice treated with EP and/or Aβ40 (Western blotting, FI by ELISA); type: in vivo; conditions: male C57BL/6 mice; EP 0.5 mg/kg i.p. once daily 5 days, then Aβ40 40 μg/kg i.p.; blood 6 h later
Protocol: All experiments were approved by the Institutional Animal Care and Use Committee at the Roswell Park Cancer Institute under protocol 1022M. All mice were housed in individually ventilated pathogen-free cage systems equipped with HEPA filtered air supply and reverse osmosis purified water in a centralized vivarium facility. The facility is controlled with fully automated sensors for light (12-hour dark – 12-hour light cycle), temperature (70°F ± 2°F), humidity and airflow. All mice had free access to standard rodent diet (sterilizable Teklad #2018, with 6% fat and alfalfa free). C57BL/6NTac mice (male) were purchased from Taconic and used in two experiments. […]
as §1
(§2) Each plasma sample (7.5 μl of plasma per sample) was mixed with 4x loading dye, heated at 95°C for 5 min, and resolved by SDS-PAGE. The separated proteins were transferred to polyvinylidene fluoride membrane, probed with specific antibodies, and detected using Luminata Classico or Luminata Cresendo (Millipore).

FXII-FVII pathway [4] = test: FXII-FVII pathway activation in J20 mice and WT littermates, effect of EP (Western blotting, FI by ELISA); type: in vivo; conditions: EP 0.5 mg/kg i.p. once daily 5 days; for effect of EP on coagulation factor activation in J20 mice: blood 6 h after final treatment; for effect of EP on plasma FI level in WT littermates: ELISA
Protocol: (§3) J20 mice were purchased from the Mutant Mouse Resource & Research Centers (MMRRC) via the Jackson Laboratory. Hemizygous male J20 mice in C57BL/6J background were bred with WT female mice (C57BL/6J, also from Jackson Laboratory). F1 hemizygous J20 mice were identified by PCR genotyping based on the Jackson Laboratory protocol (https://www/jax.org/strain/006293) and used for experiments. J20 mice and their WT littermates (at the age of 1, 3 and 6 months, male and female) were treated with EP or vehicle i.p. once daily for 5 days, and at 6 h after the last treatment, blood was drawn from the mice.
(§4) Plasma concentrations of Aβ were determined by ELISA, which either detects both Aβ40 and Aβ42 [53] or specifically measures each peptide. In the latter case, ELISA kits from Invitrogen (KHB3481 and KHB3441) were used. Plasma concentration of FI was also measured by ELISA using a kit from GenWay Biotech. The commercial kits were used by following the manufacturers’ instructions.
as §2

plasma Aβ = test: Plasma Aβ level in J20 mice and WT littermates, ELISA measuring both Aβ40 and Aβ42; type: in vivo; conditions: EP 0.5 mg/kg i.p. once daily 5 days
Protocol: as §3, §4

plasma Aβ40 = test: Plasma Aβ40 level in J20 mice and WT littermates, ELISA specific for Aβ40; type: in vivo; conditions: 3 months of age, EP 0.5 mg/kg i.p. once daily 5 days
Protocol: as §3, §4

plasma Aβ42 = test: Plasma Aβ42 level in J20 mice and WT littermates, ELISA specific for Aβ42; type: in vivo; conditions: 3 months of age, EP 0.5 mg/kg i.p. once daily 5 days
Protocol: as §3, §4

[5] = tested on: brain amyloid plaque load; conditions: Tg2576 mice; chronic treatment with EP at the same dose regimen (∼2.5 mg/kg, i.p., 3 times weekly); cited from earlier work
From the text: (§5) By inhibiting the FXII-FVII pathway, anticoagulants present an interesting dichotomy in impacting AD: Inhibiting procoagulant activity, potentially slowing or ameliorating AD, but also inhibiting plasma Aβ degradation, potentially contributing to brain Aβ accumulation. Indeed, increased coagulation is implicated in AD [42], but there is also evidence that peripheral Aβ moves to the brain [43]. The exact effect of anticoagulants on AD remains unclear. Treatment of AD mice (APP23 mice) with EP (∼2.5 mg/kg, i.p., 3 times weekly) for 6 months reduced brain astrocyte activation and Aβ accumulat ...

[6] = tested on: brain astrocyte activation and Aβ accumulation; conditions: APP23 mice; EP ∼2.5 mg/kg, i.p., 3 times weekly for 6 months; cited from earlier work
From the text: as §5

[H]/N=C(/N)c1ccc(NCc2nc3cc(C(=O)N(CCC(=O)O)c4ccccn4)ccc3n2C)cc1 [DGT, dabigatran]
increase in plasma level of Aβ42 [1]: up to 21.3 fold

enoxaparin [EP]
increase in plasma level of Aβ42 [1]: up to 73.3 fold
increase in plasma level of exogenously administered Aβ40 ([2]; Aβ40 40 μg/kg i.p. 1 h after last dose, blood 6 h later): 77.4 fold
elevation of plasma level of endogenous Aβ ([2]; no Aβ40 injected): 1.7 fold
effect of EP on Aβ40-induced activation of coagulation factors (FXII-FVII pathway [3]): prevents the activation of FX, FII, FVII and FI
effect of EP on coagulation factor activation in J20 mice (FXII-FVII pathway [4]; 1 month of age, male and female): greatly attenuated the activation of FX, FII, FVII and FI
effect of EP on coagulation factor activation in J20 mice (FXII-FVII pathway [4]; 3 and 6 months of age): strongly inhibited the activation of FX, FII, FVII and FI
effect of EP on plasma FI level in WT littermates (FXII-FVII pathway [4]; 1 month of age): only slightly elevated FI level
effect of EP on plasma FI level in WT littermates (FXII-FVII pathway [4]; 3 and 6 months of age): slightly elevate FI level
ratio of EP-induced increase in plasma Aβ level in J20 mice over that in the WT littermates (plasma Aβ; 1 month of age, female): 8.7
ratio of EP-induced increase in plasma Aβ level in J20 mice over that in the WT littermates (plasma Aβ; 1 month of age, male): 9.3
ratio of EP-induced increase in plasma Aβ level in J20 mice over that in the WT littermates (plasma Aβ; 3 months of age, female): 56.9
ratio of EP-induced increase in plasma Aβ level in J20 mice over that in the WT littermates (plasma Aβ; 3 months of age, male): 47.5
ratio of EP-induced increase in plasma Aβ level in J20 mice over that in the WT littermates (plasma Aβ; 6 months of age, female): 51.2
ratio of EP-induced increase in plasma Aβ level in J20 mice over that in the WT littermates (plasma Aβ; 6 months of age, male): 40.4
increase in plasma Aβ concentration after EP treatment (plasma Aβ; J20 mice, 1 month of age, male or female, n = 3): 2.3 fold
increase in plasma Aβ level after EP treatment (plasma Aβ; J20 mice, 3 months of age, female, n = 3): 4.2 fold
increase in plasma Aβ level after EP treatment (plasma Aβ; J20 mice, 3 months of age, male, n = 3): 3.7 fold
increase in plasma Aβ level after EP treatment (plasma Aβ; J20 mice, 6 months of age, female, n = 3): 3.6 fold
increase in plasma Aβ level after EP treatment (plasma Aβ; J20 mice, 6 months of age, male, n = 3): 3.4 fold
elevation of plasma Aβ concentration (plasma Aβ; WT littermates, regardless of age or gender, blood 6 h after final treatment, n = 3): approximately 1.6 fold
ratio of EP-induced increase in plasma Aβ level in J20 mice over that in the WT littermates (plasma Aβ40; Aβ40, female): 40.1
ratio of EP-induced increase in plasma Aβ level in J20 mice over that in the WT littermates (plasma Aβ40; Aβ40, male): 45.7
increase in plasma level of Aβ40 after EP treatment (plasma Aβ40; J20 mice, female): 4.3 fold
increase in plasma level of Aβ40 after EP treatment (plasma Aβ40; J20 mice, male): 3.6 fold
increase in plasma level of Aβ40 after EP treatment (plasma Aβ40; WT littermates, female): 1.9 fold
increase in plasma level of Aβ40 after EP treatment (plasma Aβ40; WT littermates, male): 1.6 fold
ratio of EP-induced increase in plasma Aβ level in J20 mice over that in the WT littermates (plasma Aβ42; Aβ42, female): 63.6
ratio of EP-induced increase in plasma Aβ level in J20 mice over that in the WT littermates (plasma Aβ42; Aβ42, male): 47.3
increase in plasma level of Aβ42 after EP treatment (plasma Aβ42; J20 mice, female): 4.7 fold
increase in plasma level of Aβ42 after EP treatment (plasma Aβ42; J20 mice, male): 4.3 fold
increase in plasma level of Aβ42 after EP treatment (plasma Aβ42; WT littermates, female): 1.6 fold
increase in plasma level of Aβ42 after EP treatment (plasma Aβ42; WT littermates, male): 1.7 fold
effect on brain amyloid plaque load [5]: significantly increased brain amyloid plaque load
effect on brain astrocyte activation and Aβ accumulation [6]: reduced brain astrocyte activation and Aβ accumulation
